Assay results: the supplement of paper PMC11208160

Test: recombinant UMI read abundance after kanamycin selection (control-corrected) (log10(CPM+1)); higher = more efficient recombination; extreme values may be limits of the assay; sequences stand for … in AGTGCAGAGAAAATCGGCCAGTTTTCTCTGCCTGCAGTCCGCATGCCGTGGGACCCCTTGGGTTCTAACCTGTTGCCTAGATTTATGCAGCGGACTGCCTTTCTCCCAAAGTGATAAACCGG…AGGTTGGTTTCACT; site = the 11-nt donor
Summary of the method: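 In a pooled Escherichia coli screen for the IS621 bridge recombinase, donor and donor-binding-loop pairs were each placed with a 12-nt UMI on a plasmid bearing a promoterless kanamycin gene. This library was co-electroporated with a target plasmid encoding a fixed target and T7-inducible recombinase, and cells were plated either on IPTG (0.07 mM) plus kanamycin or without selection, in two replicates each. Recombinant UMIs were PCR-amplified across the donor–target junction and sequenced, and counts were converted to CPM, averaged over replicates, scaled by control-derived factors and reported as log10(CPM+1).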

Row | Sequence | recombinant UMI read abundance (log10)
1 | GCCGACACATGGACCGGTTTTCCCGGTAATCCGTATTTGTA (site GCCGACACTTA) | 1.4
2 | GCTGTTCCATGGACCGGTTTTCCCGGTAATCCGTATTTGGT (site GTTGTTCCTAC) | 0
3 | GAAGTATCATGGACCGGTTTTCCCGGTAATCCGTATTTGCA (site GAAGTATCTTG) | 2.6
4 | AGGACATCATGGACCGGTTTTCCCGGTAATCCGTATTTGCT (site CGGACATCTAG) | 1.01
5 | TAAAGTCCATGGACCGGTTTTCCCGGTAATCCGTATTTGAA (site TAAAGTCCTTA) | 0.00424
6 | ACAGTATCATGGACCGGTTTTCCCGGTAATCCGTATTTGCA (site ACAGTATCTGT) | 0.00931
7 | TGTTCCGCATGGACCGGTTTTCCCGGTAATCCGTATTTGTA (site TGTTCCACTTA) | 0.00713
8 | CGTAGCGCATGGACCGGTTTTCCCGGTAATCCGTATTTGTT (site CGTAGCGCTAA) | 1.05
9 | TGCTAGCCATGGACCGGTTTTCCCGGTAATCCGTATTTGGT (site TGCTAGACTAC) | 0.00818
10 | CCAGGGGCATGGACCGGTTTTCCCGGTAATCCGTATTTGAT (site CCAGGAGCTAT) | 0.735
11 | CAATGCTCATGGACCGGTTTTCCCGGTAATCCGTATTTGCA (site CAATGCTCTTC) | 0
12 | CAGCTATCATGGACCGGTTTTCCCGGTAATCCGTATTTGTC (site CAGCTATCTGA) | 3.3
13 | CCCTAGCCATGGACCGGTTTTCCCGGTAATCCGTATTTGCC (site CCCCAGCCTGG) | 0
14 | ACAGTATCATGGACCGGTTTTCCCGGTAATCCGTATTTGCA (site ACAGTGTCTTT) | 0.0151
15 | ACAGTATCATGGACCGGTTTTCCCGGTAATCCGTATTTGCA (site ACAGTAACTTG) | 1.55
16 | ACACGAACATGGACCGGTTTTCCCGGTAATCCGTATTTGTC (site ACACGATCTGA) | 1.55
17 | GATTATCCATGGACCGGTTTTCCCGGTAATCCGTATTTGCT (site GATTATACTAG) | 0
18 | AGCTAACCATGGACCGGTTTTCCCGGTAATCCGTATTTGTG (site AGCTAACCTCA) | 0.00444
19 | TATATCTCATGGACCGGTTTTCCCGGTAATCCGTATTTGTA (site TATATCTCTTA) | 1.93
20 | GATGTGTCATGGACCGGTTTTCCCGGTAATCCGTATTTGAC (site TATGTGTCTGT) | 0.677
21 | CGTGAGTCATGGACCGGTTTTCCCGGTAATCCGTATTTGCC (site CGTGAGTCTGG) | 1.97
22 | ACCTGGACATGGACCGGTTTTCCCGGTAATCCGTATTTGGG (site ACCTTGACTCC) | 0.0114
23 | CCGTGTACATGGACCGGTTTTCCCGGTAATCCGTATTTGCT (site CCGTATACTAG) | 0.0403
24 | CGGAATCCATGGACCGGTTTTCCCGGTAATCCGTATTTGCT (site CGGAATCCTAG) | 2.08
25 | GGGACTTCATGGACCGGTTTTCCCGGTAATCCGTATTTGTG (site GGGACTTCTCA) | 0.746

Row | Sequence | recombinant UMI read abundance (log10)
26 | TACTTGGCATGGACCGGTTTTCCCGGTAATCCGTATTTGGA (site TACTTGGCTTC) | 0.216
27 | AAACTGTCATGGACCGGTTTTCCCGGTAATCCGTATTTGCC (site AAACTGTCTGG) | 1.79
28 | GCAGCCCCATGGACCGGTTTTCCCGGTAATCCGTATTTGCT (site GCAGCCCCTAG) | 2.32
29 | TATCTGGCATGGACCGGTTTTCCCGGTAATCCGTATTTGTG (site TATCTGGCTCA) | 0.0196
30 | TCCATTCCATGGACCGGTTTTCCCGGTAATCCGTATTTGAT (site TCCATTCCTAT) | 0
31 | CCCATATCATGGACCGGTTTTCCCGGTAATCCGTATTTGTA (site CCCATATCTCA) | 0.0171
32 | AGCTACGCATGGACCGGTTTTCCCGGTAATCCGTATTTGGG (site AGCTACGCTCC) | 0.0157
33 | GATTATGCATGGACCGGTTTTCCCGGTAATCCGTATTTGCT (site GATTATGCTAG) | 2.13
34 | TAGATAACATGGACCGGTTTTCCCGGTAATCCGTATTTGTG (site TAGATAACTCA) | 1.2
35 | ACAGTATCATGGACCGGTTTTCCCGGTAATCCGTATTTGCA (site ACAGGATCTGG) | 0
36 | AGCCTTTCATGGACCGGTTTTCCCGGTAATCCGTATTTGCC (site AGCCTTTCTGT) | 0
37 | CGTTAGACATGGACCGGTTTTCCCGGTAATCCGTATTTGAT (site CGTTAGACTGT) | 0
38 | ATGTAGGCATGGACCGGTTTTCCCGGTAATCCGTATTTGGT (site ATGTAGGCTAC) | 1.27
39 | GATTGGACATGGACCGGTTTTCCCGGTAATCCGTATTTGAC (site GATTGGACTGG) | 0
40 | TTCCTAGCATGGACCGGTTTTCCCGGTAATCCGTATTTGAA (site TTCCTAGCTTT) | 0.0135
41 | GGTGTTCCATGGACCGGTTTTCCCGGTAATCCGTATTTGGC (site GGTGTTCCTGC) | 0
42 | ACACGGACATGGACCGGTTTTCCCGGTAATCCGTATTTGGC (site ACACGGACTGC) | 2.58
43 | GATTATCCATGGACCGGTTTTCCCGGTAATCCGTATTTGCT (site GAGTATCCTAG) | 0
44 | AAATCGTCATGGACCGGTTTTCCCGGTAATCCGTATTTGTC (site AAATCGTCTGA) | 1.91
45 | CCCTTCTCATGGACCGGTTTTCCCGGTAATCCGTATTTGGG (site CCCTTCACTCC) | 0.0149
46 | TAGCCGTCATGGACCGGTTTTCCCGGTAATCCGTATTTGGT (site TAGCCCTCTAC) | 0
47 | AACCGCCCATGGACCGGTTTTCCCGGTAATCCGTATTTGAA (site AACCGCCCTTT) | 0.156
48 | AATAAACCATGGACCGGTTTTCCCGGTAATCCGTATTTGCC (site AATAAACCTGG) | 0
49 | TTACTAACATGGACCGGTTTTCCCGGTAATCCGTATTTGGA (site CTACTAACTTC) | 0.457
50 | GCGATGCCATGGACCGGTTTTCCCGGTAATCCGTATTTGGG (site GCGATGCCTCC) | 0.0291

Row | Sequence | recombinant UMI read abundance (log10)
51 | TGGACTTCATGGACCGGTTTTCCCGGTAATCCGTATTTGTG (site TGGACTTCTCA) | 0.248
52 | TGCTAGGCATGGACCGGTTTTCCCGGTAATCCGTATTTGGC (site TGCTAGGCTGC) | 0
53 | ACAGTCTCATGGACCGGTTTTCCCGGTAATCCGTATTTGCA (site ACAGTCTCTTG) | 3.22
54 | AGTAATTCATGGACCGGTTTTCCCGGTAATCCGTATTTGAC (site AGTAATTCTGT) | 0.17
55 | GGTCTAACATGGACCGGTTTTCCCGGTAATCCGTATTTGTA (site GGTCCAACTTA) | 0
56 | AATGTGTCATGGACCGGTTTTCCCGGTAATCCGTATTTGAC (site TATGTGTCTGT) | 1.95
57 | GCTACTGCATGGACCGGTTTTCCCGGTAATCCGTATTTGCA (site GCTACTGCTAG) | 0
58 | TGCTAGGCATGGACCGGTTTTCCCGGTAATCCGTATTTGGA (site TGCTAGGCTGC) | 0
59 | TAAGGTCCATGGACCGGTTTTCCCGGTAATCCGTATTTGTA (site TAAGGTCCTTA) | 2.08
60 | ATCAATACATGGACCGGTTTTCCCGGTAATCCGTATTTGCA (site ATCAATACTTG) | 1.44
61 | GAAGATTCATGGACCGGTTTTCCCGGTAATCCGTATTTGTT (site GCAGATTCTAA) | 0.013
62 | GGGATCGCATGGACCGGTTTTCCCGGTAATCCGTATTTGCT (site GGGATCGCTAG) | 3.09
63 | GGAGCGGCATGGACCGGTTTTCCCGGTAATCCGTATTTGGT (site GGAGTGGCTAC) | 0.101
64 | TTCCCGCCATGGACCGGTTTTCCCGGTAATCCGTATTTGTT (site TTCCCGCCTAA) | 0.00311
65 | TCAGAGACATGGACCGGTTTTCCCGGTAATCCGTATTTGTG (site TCAGAGACTCT) | 0.205
66 | CTTCGACCATGGACCGGTTTTCCCGGTAATCCGTATTTGCA (site CTTCGACCTTG) | 0
67 | CAAATCTCATGGACCGGTTTTCCCGGTAATCCGTATTTGCA (site CAAATCTCTTG) | 1.85
68 | GTCAGAACATGGACCGGTTTTCCCGGTAATCCGTATTTGGC (site GTCAGAACTGC) | 1.57
69 | CGAGTATCATGGACCGGTTTTCCCGGTAATCCGTATTTGAC (site CGAGTATCTGT) | 3.24
70 | TTATGCACATGGACCGGTTTTCCCGGTAATCCGTATTTGTA (site TTATGCACTTA) | 0.769
71 | GACTCCTCATGGACCGGTTTTCCCGGTAATCCGTATTTGCC (site AACTCCTCTGG) | 1.71
72 | TATTTCCCATGGACCGGTTTTCCCGGTAATCCGTATTTGTG (site TATTTCCCTCA) | 0.213
73 | CCCATATCATGGACCGGTTTTCCCGGTAATCCGTATTTGTC (site CCGATATCTGA) | 0
74 | AATGTAACATGGACCGGTTTTCCCGGTAATCCGTATTTGCT (site TATGTAACTAG) | 2.39
75 | TGCTAGGCATGGACCGGTTTTCCCGGTAATCCGTATTTGTT (site TGCTAGGCTAT) | 0
